Reference: the supplement of paper PMC11208160

Experiment: recombinant UMI read abundance after kanamycin selection (control-corrected) (log10(CPM+1)); higher = more efficient recombination; extreme values may be limits of the assay; sequences stand for … in AGTGCAGAGAAAATCGGCCAGTTTTCTCTGCCTGCAGTCCGCATGCCGTGGGACCCCTTGGGTTCTAACCTGTTGCCTAGATTTATGCAGCGGACTGCCTTTCTCCCAAAGTGATAAACCGG…AGGTTGGTTTCACT; site = the 11-nt donor
In short: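 Reported values are log10(CPM+1) from a pooled Escherichia coli screen of donor and donor-binding-loop pairs for the IS621 bridge recombinase. Selection used IPTG (0.07 mM) plus kanamycin, against unselected plating, each in two replicates. Recombinant UMIs were amplified across the donor–target junction, sequenced, converted to CPM, averaged over replicates and scaled by control-derived factors.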
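Note: IS621 bridge recombinase in Escherichia coli cells against a fixed T5 target plasmid.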

Sequence	recombinant UMI read abundance (log10)
CTAGCAGCATGGACCGGTTTTCCCGGTAATCCGTATTTGCT (site CGAGCAGCTAG)	0
CTAGCAGCATGGACCGGTTTTCCCGGTAATCCGTATTTGCT (site CTAGCAGCTAG)	1.36
CTAGCGCCATGGACCGGTTTTCCCGGTAATCCGTATTTGTG (site CAAGCGCCTCA)	0.0754
CTAGCGCCATGGACCGGTTTTCCCGGTAATCCGTATTTGTG (site CCAGCGCCTCA)	0.0159
CTAGCGCCATGGACCGGTTTTCCCGGTAATCCGTATTTGTG (site CGAGCGCCTCA)	0.00935
CTAGCGCCATGGACCGGTTTTCCCGGTAATCCGTATTTGTG (site CTAGCGCCTCA)	0.446
CTAGGACCATGGACCGGTTTTCCCGGTAATCCGTATTTGGG (site CAAGGACCTCC)	0.0215
CTAGGACCATGGACCGGTTTTCCCGGTAATCCGTATTTGGG (site CCAGGACCTCC)	0.00872
CTAGGACCATGGACCGGTTTTCCCGGTAATCCGTATTTGGG (site CGAGGACCTCC)	0
CTAGGACCATGGACCGGTTTTCCCGGTAATCCGTATTTGGG (site CTAGGACCTCC)	0.0095
CTAGGACCATGGACCGGTTTTCCCGGTAATCCGTATTTGTG (site CTAGGACCTCA)	0.00443
CTAGGATCATGGACCGGTTTTCCCGGTAATCCGTATTTGAC (site CTAGAATCTGT)	2.89
CTAGGATCATGGACCGGTTTTCCCGGTAATCCGTATTTGAC (site CTAGCATCTGT)	1.06
CTAGGATCATGGACCGGTTTTCCCGGTAATCCGTATTTGAC (site CTAGGATCTGT)	1.9
CTAGGATCATGGACCGGTTTTCCCGGTAATCCGTATTTGAC (site CTAGTATCTGT)	1.35
CTAGTACCATGGACCGGTTTTCCCGGTAATCCGTATTTGGC (site CTAGTACCTGC)	0

Sequence	recombinant UMI read abundance (log10)
CTAGTACCATGGACCGGTTTTCCCGGTAATCCGTATTTGGC (site CTAGTATCTGT)	1.63
CTAGTAGCATGGACCGGTTTTCCCGGTAATCCGTATTTGAC (site CTAGTAACTGT)	2.01
CTAGTAGCATGGACCGGTTTTCCCGGTAATCCGTATTTGAC (site CTAGTACCTGT)	0
CTAGTAGCATGGACCGGTTTTCCCGGTAATCCGTATTTGAC (site CTAGTAGCTGT)	2.87
CTAGTAGCATGGACCGGTTTTCCCGGTAATCCGTATTTGAC (site CTAGTATCTGT)	2.74
CTAGTATCATGGACCGGTTTTCCCGGTAATCCGTATTTGGC (site CTAGTATCTGA)	2.25
CTAGTATCATGGACCGGTTTTCCCGGTAATCCGTATTTGGC (site CTAGTATCTGC)	3.32
CTAGTATCATGGACCGGTTTTCCCGGTAATCCGTATTTGGC (site CTAGTATCTGG)	2.2
CTAGTATCATGGACCGGTTTTCCCGGTAATCCGTATTTGGC (site CTAGTATCTGT)	2.76
CTAGTATCATGGACCGGTTTTCCCGGTAATCCGTATTTGGT (site CTAGTATCTAC)	1.85
CTAGTATCATGGACCGGTTTTCCCGGTAATCCGTATTTGGT (site CTAGTATCTGT)	2.06
CTAGTATCATGGACCGGTTTTCCCGGTAATCCGTATTTGTC (site CTAGTATCTGA)	3.35
CTAGTATCATGGACCGGTTTTCCCGGTAATCCGTATTTGTC (site CTAGTATCTGC)	3.17
CTAGTATCATGGACCGGTTTTCCCGGTAATCCGTATTTGTC (site CTAGTATCTGG)	3.08
CTAGTATCATGGACCGGTTTTCCCGGTAATCCGTATTTGTC (site CTAGTATCTGT)	2.65
CTAGTCTCATGGACCGGTTTTCCCGGTAATCCGTATTTGAG (site CTAGTATCTGT)	0
